Measured values reported in PubChem BioAssay AID256 (DTP/NCI, 2004).
Where “and” joins values, the source holds several entries; their conditions need not be identical. Identical values can stand only once. Inconclusive results and toxic doses are left out.

System: CD2F1 mice, L1210 leukemia ip, survival T/C
Test: NCI In Vivo Anticancer Drug Screen. Data for tumor model L1210 Leukemia (intraperitoneal) in CD2F1 (CDF1) mice
Details: higher = longer survival
In short: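 Vehicle-treated tumor-bearing mice served as controls (C) for compound-treated mice (T). Reported figure is T divided by C.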

[1] = endpoint: mean survival time, dose: 100.0 mg/kg/injection, schedule: Q01DX001 (ip), vehicle: saline with Tween-80
[2] = endpoint: mean survival time, dose: 200.0 mg/kg/injection, schedule: Q01DX001 (ip), vehicle: saline with Tween-80
[3] = endpoint: mean survival time, dose: 400.0 mg/kg/injection, schedule: Q01DX001 (ip), vehicle: saline with Tween-80
[4] = endpoint: mean survival time, dose: 100.0 mg/kg/injection, schedule: Q04DX003 (ip), vehicle: saline with Tween-80
[5] = endpoint: mean survival time, dose: 200.0 mg/kg/injection, schedule: Q04DX003 (ip), vehicle: saline with Tween-80
[6] = endpoint: mean survival time, dose: 400.0 mg/kg/injection, schedule: Q04DX003 (ip), vehicle: saline with Tween-80
[7] = endpoint: mean survival time, dose: 100.0 mg/kg/injection, schedule: Q01DX009 (ip), vehicle: saline with Tween-80
[8] = endpoint: mean survival time, dose: 100.0 mg/kg/injection, schedule: Q04DX002 (ip), vehicle: saline with Tween-80
[9] = endpoint: mean survival time, dose: 200.0 mg/kg/injection, schedule: Q01DX009 (ip), vehicle: saline with Tween-80
[10] = endpoint: mean survival time, dose: 200.0 mg/kg/injection, schedule: Q04DX002 (ip), vehicle: saline with Tween-80
[11] = endpoint: mean survival time, dose: 400.0 mg/kg/injection, schedule: Q01DX009 (ip), vehicle: saline with Tween-80
[12] = endpoint: mean survival time, dose: 400.0 mg/kg/injection, schedule: Q04DX002 (ip), vehicle: saline with Tween-80
[13] = endpoint: mean survival time, dose: 100.0 mg/kg/injection, schedule: Q01DX001 (ip), vehicle: saline

O=C(OCC1OC(n2cnc([N+](=O)[O-])n2)C(OC(=O)c2ccccc2)C1OC(=O)c1ccccc1)c1ccccc1 (centres undefined)
T/C (endpoint: median survival time, dose: 18.8 mg/kg/injection, schedule: Q01DX005 (ip), vehicle: Klucel (hydroxypropylcellulose) (HPC)): 100 % of control | T/C (endpoint: median survival time, dose: 37.5 mg/kg/injection, schedule: Q01DX005 (ip), vehicle: Klucel (hydroxypropylcellulose) (HPC)): 102 % of control | T/C (endpoint: median survival time, dose: 75.0 mg/kg/injection, schedule: Q01DX005 (ip), vehicle: Klucel (hydroxypropylcellulose) (HPC)): 97 % of control | T/C (endpoint: median survival time, dose: 140.0 mg/kg/injection, schedule: Q01DX005 (ip), vehicle: Klucel (hydroxypropylcellulose) (HPC)): 96 % of control

CCN(CC)CC[C-]=O.[NH-]CC[NH-].[Pd]
T/C (endpoint: mean survival time, dose: 3.13 mg/kg/injection, schedule: Q04DX003 (ip), vehicle: water): 101 % of control | T/C (endpoint: mean survival time, dose: 6.25 mg/kg/injection, schedule: Q04DX003 (ip), vehicle: water): 101 % of control | T/C (endpoint: mean survival time, dose: 12.5 mg/kg/injection, schedule: Q04DX003 (ip), vehicle: water): 101 % of control | T/C (endpoint: mean survival time, dose: 25.0 mg/kg/injection, schedule: Q04DX003 (ip), vehicle: water): 93 % of control | T/C (endpoint: mean survival time, dose: 50.0 mg/kg/injection, schedule: Q04DX003 (ip), vehicle: water): 93 % of control

Cc1ccc[n+](CC(O)c2ccc(C(O)C[n+]3cccc(C)c3)cc2)c1 (centres undefined)
T/C (endpoint: mean survival time, dose: 0.08 mg/kg/injection, schedule: Q04DX003 (ip), vehicle: saline): 101 % of control | T/C (endpoint: mean survival time, dose: 0.15 mg/kg/injection, schedule: Q04DX003 (ip), vehicle: saline): 101 % of control

OCC(O)C(O)C(O)C(O)/C=N\Nc1ccccc1 (centres undefined)
T/C [1]: 100 % of control | T/C [2]: 100 % of control | T/C [3]: 95 % of control

CC1(C)N=C(N)N=C(N)N1c1cccc(/C=C/C=C/c2cccc([N+](=O)[O-])c2)c1
T/C (endpoint: mean survival time, dose: 25.0 mg/kg/injection, schedule: Q04DX003 (ip), vehicle: saline with Tween-80): 95 % of control | T/C (endpoint: mean survival time, dose: 50.0 mg/kg/injection, schedule: Q04DX003 (ip), vehicle: saline with Tween-80): 91 % of control | T/C [4]: 89 % of control

CC1=CSCC(=O)N1
T/C [4]: 101 % of control | T/C [5]: 98 % of control | T/C [6]: 108 % of control

O=C(/C(Br)=C/c1ccccc1[N+](=O)[O-])c1ccccc1
T/C [1]: 98 % of control | T/C [2]: 95 % of control | T/C [3]: 98 % of control

COc1cc([N+](=O)[O-])ccc1NC(=O)N1CCCC(C)C1 (centres undefined)
T/C [1]: 94 % of control and 95 % of control | T/C [7]: 88 % of control and 93 % of control | T/C [8]: 98 % of control | T/C [4]: 101 % of control | T/C [2]: 86 % of control and 89 % of control | T/C [9]: 95 % of control and 106 % of control | T/C [10]: 98 % of control | T/C [5]: 103 % of control | T/C [3]: 86 % of control | T/C [11]: 88 % of control and 98 % of control | T/C [12]: 96 % of control | T/C [6]: 100 % of control

CC(=O)NC1=CC(=Nc2ccc(N(C)C)cc2)C=CC1=O
T/C (endpoint: mean survival time, dose: 1.25 mg/kg/injection, schedule: Q01DX009 (ip), vehicle: suspension in saline): 95 % of control and 97 % of control | T/C (endpoint: mean survival time, dose: 2.5 mg/kg/injection, schedule: Q01DX009 (ip), vehicle: suspension in saline): 95 % of control and 103 % of control | T/C (endpoint: mean survival time, dose: 5.0 mg/kg/injection, schedule: Q01DX009 (ip), vehicle: suspension in saline): 97 % of control and 101 % of control | T/C (endpoint: mean survival time, dose: 10.0 mg/kg/injection, schedule: Q01DX009 (ip), vehicle: suspension in saline): 90 % of control and 97 % of control

[O-][n+]1ccccc1F
T/C [13]: 104 % of control

O=P1(Cc2ccccc2)C(c2ccccc2)=C(O)C2CCCC21 (centres undefined)
T/C (endpoint: mean survival time, dose: 50.0 mg/kg/injection, schedule: Q01DX009 (ip), vehicle: Klucel (hydroxypropylcellulose) (HPC)): 97 % of control | T/C (endpoint: mean survival time, dose: 100.0 mg/kg/injection, schedule: Q01DX009 (ip), vehicle: Klucel (hydroxypropylcellulose) (HPC)): 97 % of control | T/C (endpoint: mean survival time, dose: 200.0 mg/kg/injection, schedule: Q01DX009 (ip), vehicle: Klucel (hydroxypropylcellulose) (HPC)): 89 % of control

CN1CCC(=C(C#N)c2ccccc2)CC1
T/C (endpoint: mean survival time, dose: 12.5 mg/kg/injection, schedule: Q01DX009 (ip), vehicle: saline): 100 % of control | T/C (endpoint: mean survival time, dose: 25.0 mg/kg/injection, schedule: Q01DX009 (ip), vehicle: saline): 102 % of control

O=C1CCC(C(=O)O)=NN1
T/C (endpoint: mean survival time, dose: 12.5 mg/kg/injection, schedule: Q01DX009 (ip), vehicle: water): 96 % of control | T/C (endpoint: mean survival time, dose: 25.0 mg/kg/injection, schedule: Q01DX009 (ip), vehicle: water): 101 % of control | T/C (endpoint: mean survival time, dose: 50.0 mg/kg/injection, schedule: Q01DX009 (ip), vehicle: water): 93 % of control | T/C (endpoint: mean survival time, dose: 100.0 mg/kg/injection, schedule: Q01DX009 (ip), vehicle: water): 93 % of control | T/C (endpoint: mean survival time, dose: 200.0 mg/kg/injection, schedule: Q01DX009 (ip), vehicle: water): 90 % of control

CCC(C(=O)O)c1ccc(-c2ccccc2)cc1 (centres undefined)
T/C [1]: 91 % of control | T/C [2]: 93 % of control | T/C [3]: 92 % of control

CS(=O)(=O)c1ccccn1
T/C (endpoint: mean survival time, dose: 100.0 mg/kg/injection, schedule: Q01DX001 (ip), vehicle: saline sonified): 100 % of control | T/C (endpoint: mean survival time, dose: 200.0 mg/kg/injection, schedule: Q01DX001 (ip), vehicle: saline sonified): 97 % of control | T/C (endpoint: mean survival time, dose: 400.0 mg/kg/injection, schedule: Q01DX001 (ip), vehicle: saline sonified): 100 % of control

c1ccc([Si](c2ccccc2)(c2cccs2)c2cccs2)cc1
T/C [4]: 102 % of control | T/C [5]: 106 % of control | T/C [6]: 114 % of control

CSC#N
T/C (endpoint: mean survival time, dose: 5.0 mg/kg/injection, schedule: Q01DX009 (ip), vehicle: Klucel (hydroxypropylcellulose) (HPC)): 102 % of control | T/C (endpoint: mean survival time, dose: 10.0 mg/kg/injection, schedule: Q01DX009 (ip), vehicle: Klucel (hydroxypropylcellulose) (HPC)): 102 % of control

O=c1[nH]cc(Cc2ccccc2)c(=S)[nH]1
T/C (endpoint: mean survival time, dose: 75.0 mg/kg/injection, schedule: Q01DX001 (ip), vehicle: saline with Tween-80): 107 % of control | T/C (endpoint: mean survival time, dose: 150.0 mg/kg/injection, schedule: Q01DX001 (ip), vehicle: saline with Tween-80): 102 % of control | T/C (endpoint: mean survival time, dose: 300.0 mg/kg/injection, schedule: Q01DX001 (ip), vehicle: saline with Tween-80): 91 % of control

CCC(NC(=O)OCc1ccccc1)C(=O)O (centres undefined)
T/C [7]: 88 % of control | T/C [9]: 90 % of control | T/C [11]: 90 % of control

CCC1(OC(=O)CN)C(=O)OCc2c1cc1n(c2=O)Cc2cc3ccccc3nc2-1 (centres undefined)
T/C (endpoint: median survival time, dose: 7.5 mg/kg/injection, schedule: Q04DX002 (ip), vehicle: saline): 117 % of control and 122 % of control | T/C (endpoint: median survival time, dose: 7.5 mg/kg/injection, schedule: Q04HX004 (iv), vehicle: dextrose): 175 % of control | T/C (endpoint: median survival time, dose: 7.5 mg/kg/injection, schedule: Q04HX004 (iv), vehicle: other): 186 % of control | T/C (endpoint: median survival time, dose: 15.0 mg/kg/injection, schedule: Q04HX004 (iv), vehicle: dextrose): 172 % of control | T/C (endpoint: median survival time, dose: 15.0 mg/kg/injection, schedule: Q04HX004 (iv), vehicle: other): 204 % of control | T/C (endpoint: median survival time, dose: 30.0 mg/kg/injection, schedule: Q04DX002 (ip), vehicle: saline): 191 % of control and 213 % of control | T/C (endpoint: median survival time, dose: 30.0 mg/kg/injection, schedule: Q04HX004 (iv), vehicle: dextrose): 226 % of control | T/C (endpoint: median survival time, dose: 30.0 mg/kg/injection, schedule: Q04HX004 (iv), vehicle: other): 219 % of control | T/C (endpoint: median survival time, dose: 40.0 mg/kg/injection, schedule: Q04HX004 (iv), vehicle: other): 217 % of control

CCOC(=O)Cc1nc2ccccc2[nH]1
T/C [1]: 95 % of control | T/C [8]: 101 % of control | T/C [4]: 90 % of control and 102 % of control | T/C [2]: 95 % of control | T/C [10]: 93 % of control | T/C [5]: 93 % of control and 97 % of control | T/C [3]: 93 % of control | T/C [12]: 95 % of control | T/C [6]: 91 % of control

COc1cc(C(C)=O)cc(OCc2ccccc2)c1OC
T/C [7]: 100 % of control | T/C [9]: 102 % of control | T/C [11]: 96 % of control

CN1CC=C(N2CCOCC2)CC1
T/C (endpoint: mean survival time, dose: 25.0 mg/kg/injection, schedule: Q04DX003 (ip), vehicle: saline): 109 % of control | T/C (endpoint: mean survival time, dose: 50.0 mg/kg/injection, schedule: Q04DX003 (ip), vehicle: saline): 103 % of control | T/C (endpoint: mean survival time, dose: 100.0 mg/kg/injection, schedule: Q04DX003 (ip), vehicle: saline): 103 % of control and 109 % of control

CCCCC/C(C)=N\O
T/C (endpoint: mean survival time, dose: 50.0 mg/kg/injection, schedule: Q01DX009 (ip), vehicle: saline): 98 % of control | T/C [13]: 104 % of control | T/C (endpoint: mean survival time, dose: 100.0 mg/kg/injection, schedule: Q01DX009 (ip), vehicle: saline): 98 % of control | T/C [4]: 103 % of control | T/C (endpoint: mean survival time, dose: 200.0 mg/kg/injection, schedule: Q01DX001 (ip), vehicle: saline): 95 % of control | T/C (endpoint: mean survival time, dose: 200.0 mg/kg/injection, schedule: Q01DX009 (ip), vehicle: saline): 101 % of control | T/C [5]: 97 % of control | T/C (endpoint: mean survival time, dose: 400.0 mg/kg/injection, schedule: Q01DX001 (ip), vehicle: saline): 98 % of control
